From US9969732B2, “Tetrahydroisoquinoline estrogen receptor modulators and uses thereof” (Genentech, Inc., priority 2016, dated 2018) come the findings set out here.

The assay concerns the target T1, ER-alpha (WT) (Homo sapiens, UniProt P03372).
T1 construct: endogenous in cells; host or cells: MCF7 breast cancer cells
T1 sequence (P03372 1-595): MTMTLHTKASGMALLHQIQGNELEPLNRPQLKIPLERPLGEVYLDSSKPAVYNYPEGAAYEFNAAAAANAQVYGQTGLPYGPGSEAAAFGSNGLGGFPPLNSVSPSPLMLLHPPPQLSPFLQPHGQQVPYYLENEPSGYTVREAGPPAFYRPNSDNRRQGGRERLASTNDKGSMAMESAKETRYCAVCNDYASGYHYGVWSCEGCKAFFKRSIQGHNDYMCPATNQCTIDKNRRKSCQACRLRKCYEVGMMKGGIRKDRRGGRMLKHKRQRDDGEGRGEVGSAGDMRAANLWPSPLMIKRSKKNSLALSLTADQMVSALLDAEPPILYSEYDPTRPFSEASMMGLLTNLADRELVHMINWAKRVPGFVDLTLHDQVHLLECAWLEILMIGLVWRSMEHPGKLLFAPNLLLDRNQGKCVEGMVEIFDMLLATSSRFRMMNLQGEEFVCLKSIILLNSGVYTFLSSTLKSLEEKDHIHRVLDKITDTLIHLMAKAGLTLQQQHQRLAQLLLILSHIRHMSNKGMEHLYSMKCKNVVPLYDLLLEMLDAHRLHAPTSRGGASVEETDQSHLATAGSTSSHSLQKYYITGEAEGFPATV
Put plainly: Breast Cancer Cell ERa High Content Fluorescence Imaging Degradation Assay (MCF7 HCS). Format: cell-based. As to conditions: MCF7 breast cancer cells, 4 hours incubation; for EC50: inflexion point of curve; for ERalpha (WT) MCF7 HCS (S inf): plateau of the maximal effect, DMSO and Fulvestrant define 0% and 100% changes in ESR1. As for the experimental part: MCF7 breast cancer cells were seeded on day 1 at a density of 10,000 cells per well in 384 well poly-lysine coated tissue culture plate (Greiner #T-3101-4), in 50 μL/well RPMI (phenol red free), 10% FBS (Charcoal stripped), containing L-glutamine. […] Compounds and controls were dispensed using a Labcyte Echo acoustic dispenser to dispense compounds with a predefined serial dilution (1.8×, 10 point, in duplicate) and appropriate backfill and control compounds (final total volume transferred was 417.5 nL and compound dispense volume ranges from 2.5 nL to 417.5 nL; 0.84% DMSO (v/v) final), ultimately producing a concentration range from 0.05 nM to 835 nM. Cell plates were incubated at 37° C., for 4 hours. Fixation and permeabilization were carried out using a Biotek EL406 plate washer and dispenser as follows. Cells were fixed by addition of 15 μL of 16% paraformaldehyde (Electron Microscopy Sciences #15710-S) directly to the 50 μL cell culture medium in each well using the peristaltic pump 5 μL cassette on a Biotek EL406 (final concentration of formaldehyde was 3.7% w/v). Samples were incubated 30 minutes. Well contents was aspirated and 50 μL/well of Phosphate Buffered Saline (PBS) containing 0.5% w/v bovine serum albumen, 0.5% v/v Triton X-100 (Antibody Dilution Buffer) was added to each well. Samples were incubated for 30 minutes. Well contents were aspirated and washed 3 times with 100 μL/well of PBS. Immunofluorescence staining of estrogen receptor alpha (ESR1) was carried out using a Biotek EL406 plate washer and dispenser as follows. The well supernatant was aspirated from the wells and 25 μL/well of anti-ESR1 mAb (F10) (Santa Cruz sc-8002) diluted 1:1000 in Antibody Dilution Buffer was dispensed. Samples were incubated for 2 hours at room temperature. Samples were washed 4 times with 100 μL/well of PBS. 25 μL (microliters)/well of secondary antibody solution (Alexafluor® 488 conjugate anti-mouse IgG (LifeTechnologies #A21202) diluted 1:1000 and Hoechst 33342 1 μg/mL diluted in Antibody Dilution Buffer) were dispensed into each well. Samples were incubated for 2 hours at room temperature. Samples were washed 3 times with 100 μL/well of PBS using a Biotek EL406. Quantitative fluorescence imaging of ESR1 was carried out using a Cellomics Arrayscan V® (Thermo). Fluorescence images of the samples (Channel 1: XF53 Hoechst (DNA stain); Channel 2: XF53 FITC (ESR1 stain)) were acquired using a Cellomics VTI Arrayscan using the Bioapplication “Compartmental Analysis” using the auto-exposure (based on DMSO control wells) setting “peak target percentile” set to 25% target saturation for both channels. Channel 1 (DNA stain) was used to define the nuclear region (Circ). Measurements of “Mean_CircAvgIntCh2”, which is the Alexafluor 488 fluorescence intensity (ESR1) within the nuclear region, was measured on a per cell basis and averaged over all the measured cells. Data analysis was carried out using Genedata Screener Software, with DMSO and 5 nM Fulvestrant treated samples being used to define the 0% and 100% changes in ESR1. The “Robust Fit” method was used to define the inflexion point of curve (EC50) and the plateau of the maximal effect (Sinf).

By EC50 is commonly meant the concentration giving half of the maximal effect. Read a high EC50 as a less potent agent.

In turn, `CC(C)(F)C(=O)N1CCc2cc(O)ccc2[C@@H]1c1ccc(OCCN2CC(CF)C2)cc1` (single isomer, unassigned) [Example 103] returned an EC50 of 100 nM. On to `CC(C)(F)C(=O)N1CCc2cc(O)ccc2[C@H]1c1ccc(OCCN2CC(CF)C2)cc1` (single isomer, unassigned) [Example 104], for which a half-maximal response (EC50) required 0.741 nM and the “ERalpha (WT) MCF7 HCS (S inf)” value is −90%. `CC(C)(F)CN1CCc2cc(O)ccc2[C@]1(C)c1ccc(OCCN2CC(CF)C2)cc1` (single isomer, unassigned) [Example 107]: the EC50 worked out at 3.22 nM and the “ERalpha (WT) MCF7 HCS (S inf)” value is given as −97%. As for `CC(C)(F)CN1CCc2cc(O)ccc2[C@@]1(C)c1ccc(OCCN2CC(CF)C2)cc1` (single isomer, unassigned) [Example 108], it took 0.0344 nM to reach a half-maximal effect (EC50) and the “ERalpha (WT) MCF7 HCS (S inf)” value is reported as −98%. The compound `CS(=O)(=O)N1CCc2cc(O)ccc2[C@@H]1c1ccc(OCCN2CC(CF)C2)cc1` (single isomer, unassigned) [Example 109] displayed an EC50 not below 100 nM. With `CS(=O)(=O)N1CCc2cc(O)ccc2[C@H]1c1ccc(OCCN2CC(CF)C2)cc1` (single isomer, unassigned) [Example 110], the EC50 was determined as 8.28 nM and the “ERalpha (WT) MCF7 HCS (S inf)” value is −85%. Compound `C[C@H]1CN(S(C)(=O)=O)[C@@H](c2ccc(OCCN3CC(CF)C3)cc2)c2ccc(O)cc21` (single isomer, unassigned) [Example 118] came in with an EC50 not below 100 nM.

In turn, `C[C@@H]1CN(S(C)(=O)=O)[C@@H](c2ccc(OCCN3CC(CF)C3)cc2)c2ccc(O)cc21` (single isomer, unassigned) [Example 119] displayed an EC50 not below 100 nM. Take `C[C@@H]1Cc2c(ccc3[nH]ncc23)[C@@H](c2c(F)cc(OCCN3CC(CF)C3)cc2F)N1CC(C)(C)F` (single isomer, unassigned) [Example 123]: the EC50 was determined as 0.06 nM and the “ERalpha (WT) MCF7 HCS (S inf)” value is listed as −98.8%. On the same counts, the results for `C[C@H]1Cc2c(ccc3[nH]ncc23)[C@H](c2c(F)cc(OCCN3CC(CF)C3)cc2F)N1CC(C)(C)F` (single isomer, unassigned) [Example 124] are 3.23 nM and −90%.

As to `CC(C)(F)CN1CCc2cc(O)ccc2[C@@]1(c1ccc(OCCN2CC(CF)C2)cc1)C(F)F` (single isomer, unassigned) [Example 127], the EC50 was determined as 22 nM and the “ERalpha (WT) MCF7 HCS (S inf)” value was −85%. On the same counts, the results for `CC(C)(F)CN1CCc2cc(O)ccc2[C@]1(c1ccc(OCCN2CC(CF)C2)cc1)C(F)F` (single isomer, unassigned) [Example 128] are 0.075 nM and −95%. For `C[C@H]1Cc2cc(O)ccc2[C@H](c2ccc(OCCN3CC(CF)C3)cc2)N1CC(F)(F)F` (single isomer, unassigned) [Example 131], in that order: 1.4 nM and −96%. On the same counts, the results for `C[C@@H]1Cc2cc(O)ccc2[C@@H](c2ccc(OCCN3CC(CF)C3)cc2)N1CC(F)(F)F` (single isomer, unassigned) [Example 132] are 0.011 nM and −97%. `Oc1ccc2c(c1)CCCN(CC(F)(F)F)[C@H]2c1ccc(OCCN2CC(CF)C2)cc1` (single isomer, unassigned) [Example 139]: the response was half-maximal at 0.101 nM (EC50) and the “ERalpha (WT) MCF7 HCS (S inf)” value is on record as −95.4%.

Take `Oc1ccc2c(c1)CCCN(CC(F)(F)F)[C@@H]2c1ccc(OCCN2CC(CF)C2)cc1` (single isomer, unassigned) [Example 140]: the EC50 was found to be 0.05 nM and the “ERalpha (WT) MCF7 HCS (S inf)” value is reported as −96.6%.

Take `Oc1ccc2c(c1)CCN(CC(F)(F)F)C2c1c(F)cc(OC2CN(CCCF)C2)cc1F` (single isomer, unassigned) [Example 143]: the EC50 stood at 22 nM and the “ERalpha (WT) MCF7 HCS (S inf)” value was −100%.
